Results: article PMC3504484 (Journal of Medicinal Chemistry, 2012)
Like-named read-outs stand apart in the source and are kept apart here.

Key:
5-HT3A receptor = target: T1, 5-HT3A receptor (Homo sapiens, UniProt P46098); type: binding
T1 sequence (P46098 24-478): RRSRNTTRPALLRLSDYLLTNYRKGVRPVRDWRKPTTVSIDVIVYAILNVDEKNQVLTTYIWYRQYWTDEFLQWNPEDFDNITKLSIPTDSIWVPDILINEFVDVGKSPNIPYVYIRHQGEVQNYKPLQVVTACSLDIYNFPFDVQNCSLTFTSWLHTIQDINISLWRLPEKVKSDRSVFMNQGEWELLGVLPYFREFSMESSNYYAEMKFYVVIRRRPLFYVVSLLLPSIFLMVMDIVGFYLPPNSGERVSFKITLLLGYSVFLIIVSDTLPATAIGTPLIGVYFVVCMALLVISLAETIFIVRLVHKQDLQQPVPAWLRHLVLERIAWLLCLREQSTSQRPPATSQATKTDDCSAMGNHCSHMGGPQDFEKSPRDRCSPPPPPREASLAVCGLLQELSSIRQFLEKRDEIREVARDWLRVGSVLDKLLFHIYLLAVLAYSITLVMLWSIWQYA

Glycine = test: single point radioligand competition binding; set-up: species or system rat; details: 0.1 µM
[1] = compared to quinoline compound 51
[2] = compared to parent isoquinoline compound 52

For `CNc1nc(N2CCN(C)CC2)nc2ccc(Cl)cc12` [Compound 6], the “fold increase in affinity” value (5-HT3A receptor; compared to compound 1) was 16 fold.
In the case of `CN1CCN(c2ncc3cc(Cl)ccc3n2)CC1` [Compound 11, 6-Chloro-2-(4-methylpiperazin-1-yl)quinazoline], the “fold reduction in affinity” value (5-HT3A receptor; compared to compound 6) was roughly 10 fold.
In the case of `CN1CCN(c2nc(N)c3cc(Cl)ccc3n2)CC1` [Compound 12], the “fold reduction in affinity” value (5-HT3A receptor) was roughly 10 fold.
In the case of `CN1CCN(c2nc(N(C)C)c3cc(Cl)ccc3n2)CC1` [Compound 13], the “fold reduction in affinity” value (5-HT3A receptor; compared to compound 6) was roughly 10 fold.
`CNc1nc(N2CCN(C)CC2)nc2ccccc12` [Compound 21, N-Methyl-2-(4-methylpiperazin-1-yl)quinazolin-4-amine] was tested, and the “fold reduction in affinity” value (5-HT3A receptor; compared to compound 6) was roughly 5 fold.
`CN1CCN(c2nc(N)c3ccccc3n2)CC1` [Compound 22] was tested, and the “selectivity for the 5-HT3A receptor over the H4R” value (5-HT3A receptor; H4R affinity from ref 35) was ~40 000 fold and the “% inhibition of control specific binding ± s.e.m.” value (Glycine) was less than 15%.
For `CNc1cc(N2CCN(C)CC2)nc2ccccc12` [Compound 31, N-Methyl-2-(4-methylpiperazin-1-yl)quinolin-4-amine], the “fold drop in affinity” value (5-HT3A receptor; [1]) was roughly 30 fold.
`CN1CCN(c2cnc3ccccc3c2)CC1` [Compound 35, 3-(4-Methylpiperazin-1-yl)quinoline] was tested, and the “fold drop in affinity” value (5-HT3A receptor; compared to (iso)quinolines 51 and 52) was greater than 250 fold.
`CN1CCN(c2cc3ccccc3c(N)n2)CC1` [Compound 39, 3-(4-Methylpiperazin-1-yl)isoquinolin-1-amine] gave a fold lower affinity (5-HT3A receptor; [2]) of 140 fold.
Work on `CNc1nc(N2CCN(C)CC2)cc2ccccc12` [Compound 40, N-Methyl-3-(4-methylpiperazin-1-yl)isoquinolin-1-amine] yielded a fold lower affinity (5-HT3A receptor; [2]) of roughly 5 fold.
`CN1CCN(c2ccc3c(N)cccc3n2)CC1` [Compound 46, 2-(4-Methylpiperazin-1-yl)quinolin-5-amine] was tested, and the “fold drop in affinity” value (5-HT3A receptor; compared to compound 30) was roughly 100 fold and the “fold drop in affinity” value (5-HT3A receptor; [1]) was roughly 1000 fold.
With `CN1CCN(c2nc(O)c3cc(Cl)ccc3n2)CC1` [Compound 48] the “fold reduction in affinity” value (5-HT3A receptor) was roughly 500 fold.
`CN1CCN(c2cnc3ccccc3n2)CC1` [Compound 50] was tested, and the fold lower affinity (5-HT3A receptor; compared to compounds 49, 51 and 52) was 3–10 fold.
